Experimental data taken from patent US20200009088A1, “COMPOSITIONS AND METHODS FOR TREATING ANDROGEN-INDEPENDENT CANCER” (The Regents of the University of California, priority 2017, published 2020).
Entries after “also recorded” stand apart in the source; their conditions may differ.

Experiments:
MCF-7 cells = experiment: Breast cancer cell growth, MCF-7; type: cell-based; details: three days, FIG. 20B
AR-V7 [1] = target: T1, AR-V7 (Homo sapiens, UniProt P10275); experiment: AR transactivation luciferase assay in HEK 293 cells, AR-V7; type: cell-based; details: luciferase reporter, FIG. 5B
T1 sequence (P10275 1-644 isoform P10275-3): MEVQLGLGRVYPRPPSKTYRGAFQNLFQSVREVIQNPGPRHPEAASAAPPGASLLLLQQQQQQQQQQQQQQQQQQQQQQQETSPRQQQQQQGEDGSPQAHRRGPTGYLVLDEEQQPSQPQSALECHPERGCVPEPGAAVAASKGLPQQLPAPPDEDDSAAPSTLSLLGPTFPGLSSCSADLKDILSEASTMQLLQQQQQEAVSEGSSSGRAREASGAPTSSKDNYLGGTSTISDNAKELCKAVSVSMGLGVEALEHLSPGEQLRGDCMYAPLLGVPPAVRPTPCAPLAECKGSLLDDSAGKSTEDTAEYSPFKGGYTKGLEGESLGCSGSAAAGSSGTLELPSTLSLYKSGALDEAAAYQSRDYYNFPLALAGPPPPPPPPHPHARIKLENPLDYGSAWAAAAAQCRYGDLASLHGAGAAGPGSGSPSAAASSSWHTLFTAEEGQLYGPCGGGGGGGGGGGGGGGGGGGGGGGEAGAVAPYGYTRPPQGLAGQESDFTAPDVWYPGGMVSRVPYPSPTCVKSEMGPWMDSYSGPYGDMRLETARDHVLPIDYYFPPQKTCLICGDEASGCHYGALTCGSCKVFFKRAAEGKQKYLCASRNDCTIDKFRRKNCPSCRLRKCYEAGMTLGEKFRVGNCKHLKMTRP
Description: (§1) HEK 293 cells were transiently transfected with expression vectors encoding the corresponding mutant AR and an androgen-responsive luciferase reporter gene construct. […] Luciferase activity was then determined.

C4-2B AbiR cells = experiment: Cell growth assay (cell numbers), C4-2B AbiR; type: cell-based; details: 0.5 μM + enzalutamide, 48 hours, FIG. 7C
C4-2BMDVR cells = experiment: ELISA cell death (apoptosis) assay; type: cell-based; details: FIG. 8; for cell apoptosis: compound alone, analogs compared with niclosamide
Description: To further examine the anti-cancer effects of these compounds, an ELISA cell death assay was performed.

L702H AR mutant = target: T2, L702H AR mutant (Homo sapiens, UniProt P10275, L702H); experiment: AR transactivation luciferase assay in HEK 293 cells, L702H; type: cell-based; details: luciferase reporter, FIG. 5F
T2 construct: expressed in transfected cells; host or cells: HEK 293
Description: as §1

in vivo = details: male, Sprague-Dawley, rat, in vivo, po, 200 mg/kg
Description: Blood samples were obtained at the time points indicated in FIG. 18 (0 minutes, 15 minutes, 30 minutes, 1 hour, 1.5 hours, 2 hours, 4 hours, 6 hours, 8 hours, and 24 hours) and the plasma was isolated for LC-MS analysis.

AR-V12 = target: T3, AR-V12 (Homo sapiens, UniProt P10275); experiment: PSA-luc assay in C4-2B cells, AR-V12; type: cell-based; details: FBS, 1 μM overnight, FIG. 14F
T3 construct: expressed in transfected cells; host or cells: C4-2B
Description: (§2) C4-2B cells were cotransfected with pcDNA, with or without AR-V1, AR-V3, AR-V7, AR-V9 or AR-V12, and with PSA-E/P-luciferase plasmids in FBS condition.

AR = experiment: Western blot of AR expression in CWR22Rv1 cell lysates; type: cell-based; details: CWR22Rv1 cells, FIG. 2A
Description: “AR-Variants” represents a combination of all forms of AR.
The effects of the synthetic small molecule modulators on AR and AR variant expression were determined. CWR22Ry1 prostate cancer cells were treated with different compounds. Protein lysates were analyzed for AR and AR variant expression.

PSA = PSA protein expression by ELISA in C4-2 cells overexpressing AR-V7; type: cell-based; details: C4-2-V7 cells, FIG. 3; for PSA expression: compound alone, ELISA; for enzalutamide-mediated PSA inhibition: in presence of enzalutamide (MDV)
Description: PSA protein expression was determined by ELISA assay. * denotes p<0.05.

MDA-MB-468 cells = experiment: Breast cancer cell growth, MDA-MB-468; type: cell-based; details: three days, FIG. 20A
AR-V9 = target: T4, AR-V9 (Homo sapiens, UniProt P10275, DEL470-473/INS56QQQQQ/L57Q); experiment: PSA-luc assay in C4-2B cells, AR-V9; type: cell-based; details: FBS, 1 μM overnight, FIG. 14E
T4 construct: expressed in transfected cells; host or cells: C4-2B
Description: as §2

AR-V7 [2] = target: T1, AR-V7; experiment: PSA-luc assay in C4-2B cells, AR-V7; type: cell-based; details: FBS, 1 μM overnight, FIG. 14D
Description: as §2

K581R AR mutant = target: T5, K581R AR mutant (Homo sapiens, UniProt P10275, K581R); experiment: AR transactivation luciferase assay in HEK 293 cells, K581R; type: cell-based; details: luciferase reporter, FIG. 5D
T5 construct: expressed in transfected cells; host or cells: HEK 293
Description: as §1

C4-2B MDVR cells = experiment: Cell growth assay (cell numbers), C4-2B MDVR; type: cell-based; details: for cell proliferation, combination with enzalutamide (MDV) / cell growth: C4-2B MDVR, 48 hours; for cell proliferation, combination with enzalutamide (MDV): 0.5 μM + enzalutamide, FIG. 7B; for cell growth: increasing doses of niclosamide/analogs, FIG. 6
wild-type AR = target: T6, wild-type AR (Homo sapiens, UniProt P10275); experiment: AR transactivation luciferase assay in HEK 293 cells, wild-type AR; type: cell-based; details: luciferase reporter, FIG. 5A
T6 construct: expressed in transfected cells; host or cells: HEK 293
Description: as §1

T878A AR mutant = target: T7, T878A AR mutant (Homo sapiens, UniProt P10275, T878A); experiment: AR transactivation luciferase assay in HEK 293 cells, T878A; type: cell-based; details: luciferase reporter, FIG. 5C
T7 construct: expressed in transfected cells; host or cells: HEK 293
Description: as §1

AR-FL = target: T8, AR-FL (Homo sapiens, UniProt P10275, T878A); experiment: PSA-luc assay in C4-2B cells (pcDNA), AR-FL; type: cell-based; details: FBS, 1 μM overnight, FIG. 14A
T8 construct: endogenous in cells; host or cells: C4-2B cells transfected with pcDNA and the PSA-E/P-luciferase reporter
Description: as §2

AR-V3 = experiment: PSA-luc assay in C4-2B cells, AR-V3; type: cell-based; details: FBS, 1 μM overnight, FIG. 14C
Description: as §2

CWR22Rv1 cells = experiment: Cell growth assay (cell numbers), CWR22Rv1; type: cell-based; details: for cell proliferation, combination with enzalutamide (MDV): CWR22Rv1, 0.5 μM + enzalutamide, 48 hours, FIG. 7A; for cell growth: CWR22Rv1, 48 hours, increasing doses of niclosamide/analogs, FIG. 6

SMILES	breast cancer cell growth (MCF-7 cells)	AR-V7 transactivation (AR-V7 [1])	cell proliferation, combination with enzalutamide (MDV) (C4-2B AbiR cells)	cell apoptosis (C4-2BMDVR cells)	apoptotic cell death, combination with enzalutamide (MDV) (C4-2BMDVR cells)	L702H mutant AR transactivation (L702H AR mutant)	AUC(0-inf) (in vivo) [µM·h]	AUC_% Extrap_obs (in vivo)	HL_Lambda_z (in vivo) [min]	AR-V12-mediated PSA-luc activity (AR-V12)	AR expression (AR)	PSA expression (PSA)	enzalutamide-mediated PSA inhibition (PSA)	breast cancer cell growth (MDA-MB-468 cells)	AR-V9-mediated PSA-luc activity (AR-V9)	AR-V7-mediated PSA-luc activity (AR-V7 [2])	K581R mutant AR transactivation (K581R AR mutant)	cell proliferation, combination with enzalutamide (MDV) (C4-2B MDVR cells)	cell growth (C4-2B MDVR cells)	wild-type AR transactivation (wild-type AR)	also measured
O=C(Nc1ccc(C(F)(F)F)cc1Cl)c1cc(Cl)ccc1O [Compound 7]	inhibited	significantly blocked	further inhibited	further enhanced	further increased	significantly blocked	4.28	15.35 +/− 3.08%	580.54 ± 86.4	inhibited	inhibited	inhibited	further enhanced	inhibited	inhibited	inhibited	significantly blocked	further inhibited	able to inhibit cell growth in a dose-dependent manner	blocked	T878A mutant AR transactivation (T878A AR mutant): significantly blocked; AR-FL-mediated transcriptional activity (PSA-luc) (AR-FL): inhibited; AR-V3-mediated PSA-luc activity (AR-V3): inhibited; cell proliferation, combination with enzalutamide (MDV) (CWR22Rv1 cells): further inhibited; cell growth (CWR22Rv1 cells): able to inhibit cell growth in a dose-dependent manner
C=CC(=O)Oc1ccc(Cl)cc1C(=O)Nc1ccc([N+](=O)[O-])cc1Cl [Compound 31]	inhibited	significantly blocked	further inhibited	further enhanced	further increased	significantly blocked	6.48	2.3 +/− 1.85%	276.51 ± 92.17	inhibited	inhibited	inhibited; also recorded: strongest effect	further enhanced	inhibited	inhibited	inhibited	significantly blocked	further inhibited	able to inhibit cell growth in a dose-dependent manner	blocked	AUC(0-t) (in vivo): 6.37 µM·h; Cmax (in vivo): 2690 nM; Tmax (in vivo): 25 min; Cmax (in vivo; Cmax): 2680 nM; synergy with abiraterone in inhibiting cell growth (C4-2B MDVR cells; C4-2BMDVR, analog 0.25 μM + abiraterone 5 μM, FIG. 10): able to synergize; synergy with enzalutamide in inhibiting cell growth (C4-2B MDVR cells; C4-2BMDVR, analog 0.25 μM + enzalutamide 20 μM, FIG. 10): able to synergize; T878A mutant AR transactivation (T878A AR mutant): significantly blocked; AR-FL-mediated transcriptional activity (PSA-luc) (AR-FL): inhibited; AR-V3-mediated PSA-luc activity (AR-V3): inhibited; cell proliferation, combination with enzalutamide (MDV) (CWR22Rv1 cells): further inhibited; cell growth (CWR22Rv1 cells): able to inhibit cell growth in a dose-dependent manner
